Data as given in ChEMBL document CHEMBL5247613, “Design, synthesis and biological evaluation of a new class of Hsp90 inhibitors vibsanin C derivatives” (Eur J Med Chem, 2022).
Active and inactive are the calls of the source. The calls are words filed in the database; no cut-off is given here.

Experiments:
[1] = tested on: Reticulocyte; assay: Inhibition of HSP90 in rabbit reticulocyte lysates at 10 uM incubated for 3 hrs by denatured luciferase refolding assay; format: subcellular; conditions: Oryctolagus cuniculus
[2] = Inhibition of HSP90 in rabbit reticulocyte lysates incubated for 3 hrs by denatured luciferase refolding assay; format: subcellular, Oryctolagus cuniculus
[3] = tested on: HL-60; assay: Antiproliferative activity against human HL-60 cells assessed as reduction in cell viability incubated for 48 hrs by MTT assay; format: functional, cell-based; conditions: HL-60, 48 h
[4] = tested on: A549; assay: Antiproliferative activity against human A549 cells assessed as reduction in cell viability incubated for 48 hrs by MTT assay; format: functional, cell-based; conditions: A549, 48 h
[5] = tested on: SMMC-7721; assay: Antiproliferative activity against human SMMC-7721 cells assessed as reduction in cell viability incubated for 48 hrs by MTT assay; format: functional, cell-based; conditions: SMMC-7721, 48 h
[6] = tested on: MCF7; assay: Antiproliferative activity against human MCF7 cells assessed as reduction in cell viability incubated for 48 hrs by MTT assay; format: functional, cell-based; conditions: MCF7, 48 h
[7] = tested on: SW480; assay: Antiproliferative activity against human SW480 cells assessed as reduction in cell viability incubated for 48 hrs by MTT assay; format: functional, cell-based; conditions: SW480, 48 h
[8] = tested on: HL-60; assay: Induction of apoptosis in human HL-60 cells assessed as viable cells at 1 uM by AnnexinV-FITC/PI staining based flow cytometry (reference value: 89.7%); format: functional; conditions: read-out: Activity
[9] = tested on: HL-60; assay: Induction of apoptosis in human HL-60 cells assessed as early apoptotic cells at 1 uM by AnnexinV-FITC/PI staining based flow cytometry (reference value: 1.33%); format: functional
[10] = tested on: HL-60; assay: Induction of apoptosis in human HL-60 cells assessed as late apoptotic cells at 1 uM by AnnexinV-FITC/PI staining based flow cytometry (reference value: 8.57%); format: functional
[11] = tested on: HL-60; assay: Induction of apoptosis in human HL-60 cells assessed as necrotic cells at 1 uM by AnnexinV-FITC/PI staining based flow cytometry (reference value: 0.4%); format: functional
[12] = tested on: HL-60; assay: Induction of apoptosis in human HL-60 cells assessed as viable cells at 5 uM by AnnexinV-FITC/PI staining based flow cytometry (reference value: 89.7%); format: functional; conditions: read-out: Activity
[13] = tested on: HL-60; assay: Induction of apoptosis in human HL-60 cells assessed as early apoptotic cells at 5 uM by AnnexinV-FITC/PI staining based flow cytometry (reference value: 1.33%); format: functional
[14] = tested on: HL-60; assay: Induction of apoptosis in human HL-60 cells assessed as late apoptotic cells at 5 uM by AnnexinV-FITC/PI staining based flow cytometry (reference value: 8.57%); format: functional
[15] = tested on: HL-60; assay: Induction of apoptosis in human HL-60 cells assessed as necrotic cells at 5 uM by AnnexinV-FITC/PI staining based flow cytometry (reference value: 0.4%); format: functional
[16] = tested on: HL-60; assay: Induction of apoptosis in human HL-60 cells assessed as viable cells at 10 uM by AnnexinV-FITC/PI staining based flow cytometry (reference value: 89.7%); format: functional; conditions: read-out: Activity
[17] = tested on: HL-60; assay: Induction of apoptosis in human HL-60 cells assessed as early apoptotic cells at 10 uM by AnnexinV-FITC/PI staining based flow cytometry (reference value: 1.33%); format: functional
[18] = tested on: HL-60; assay: Induction of apoptosis in human HL-60 cells assessed as late apoptotic cells at 10 uM by AnnexinV-FITC/PI staining based flow cytometry (reference value: 8.57%); format: functional
[19] = tested on: HL-60; assay: Induction of apoptosis in human HL-60 cells assessed as necrotic cells at 10 uM by AnnexinV-FITC/PI staining based flow cytometry (reference value: 0.4%); format: functional
[20] = tested on: HL-60; assay: Induction of apoptosis in human HL-60 cells assessed as viable cells at 20 uM by AnnexinV-FITC/PI staining based flow cytometry (reference value: 89.7%); format: functional; conditions: read-out: Activity
[21] = tested on: HL-60; assay: Induction of apoptosis in human HL-60 cells assessed as early apoptotic cells at 20 uM by AnnexinV-FITC/PI staining based flow cytometry (reference value: 1.33%); format: functional
[22] = tested on: HL-60; assay: Induction of apoptosis in human HL-60 cells assessed as late apoptotic cells at 20 uM by AnnexinV-FITC/PI staining based flow cytometry (reference value: 8.57%); format: functional
[23] = tested on: HL-60; assay: Induction of apoptosis in human HL-60 cells assessed as necrotic cells at 20 uM by AnnexinV-FITC/PI staining based flow cytometry (reference value: 0.4%); format: functional
[24] = tested on: HL-60; assay: Induction of apoptosis in human HL-60 cells assessed as decrease in Bcl2 protein expression at 1 to 10 uM incubated for 24 hrs by western blot analysis; format: functional, cell-based; conditions: dose 1-10 µM
[25] = tested on: HL-60; assay: Induction of apoptosis in human HL-60 cells assessed as increase in Bax protein expression at 1 to 10 uM incubated for 24 hrs by western blot analysis; format: functional, cell-based; conditions: dose 1-10 µM
[26] = tested on: HL-60; assay: Induction of apoptosis in human HL-60 cells assessed as increase in caspase-3 cleavage incubated for 24 hrs by western blot analysis; format: functional, cell-based; conditions: dose 1-10 µM
[27] = tested on: HL-60; assay: Induction of apoptosis in human HL-60 cells assessed as increase in PARP cleavage incubated for 24 hrs by western blot analysis; format: functional, cell-based; conditions: dose 1-10 µM
[28] = target: T1, Heat shock protein HSP90 (Homo sapiens) (UniProt P07900+P08238); assay: Inhibition of HSP90 in human HL-60 cells assessed as increase in HSP27 protein expression incubated for 24 hrs by western blot analysis; format: cell-based; conditions: dose 1-10 µM
[29] = target: T1, Heat shock protein HSP90 (Homo sapiens); assay: Inhibition of HSP90 in human HL-60 cells assessed as decrease in CDK4 protein expression incubated for 24 hrs by western blot analysis; format: cell-based; conditions: dose 1-10 µM
[30] = Solubility of the compound in aqueous NMR buffer; format: physicochemical
[31] = tested on: H22; assay: Antitumor activity against mouse H22 cells xenografted in Kunming mouse assessed as reduction in tumor volume at 100 mg/kg, ip administered for 14 days; format: functional; conditions: H22, 336 h, time 14 day
[32] = tested on: H22; assay: Antitumor activity against mouse H22 cells xenografted in Kunming mouse assessed as reduction in tumor weight at 100 mg/kg, ip administered for 14 days; format: functional; conditions: H22, 336 h, time 14 day
[33] = Toxicity in Kunming mouse xenografted with mouse H22 cells assessed as body weight loss at 100 mg/kg, ip administered for 14 days; format: organism-based; conditions: in vivo, 336 h, time 14 day
[34] = Toxicity in Kunming mouse assessed as normal animal behaviour at 500 mg/kg, ip administered as single dose; format: organism-based; conditions: in vivo
[35] = Toxicity in Kunming mouse assessed as effect on feeding habits at 500 mg/kg, ip administered as single dose; format: organism-based; conditions: in vivo
[36] = Toxicity in Kunming mouse assessed as effect on physical appearance at 500 mg/kg, ip administered as single dose; format: organism-based; conditions: in vivo
[37] = Toxicity in Kunming mouse assessed as injury at 500 mg/kg, ip administered as single dose; format: organism-based; conditions: in vivo
[38] = Toxicity in Kunming mouse assessed as pain at 500 mg/kg, ip administered as single dose; format: organism-based; conditions: in vivo
[39] = Toxicity in Kunming mouse assessed as effect on sign of illness at 500 mg/kg, ip administered as single dose; format: organism-based; conditions: in vivo
[40] = Toxicity in ip dosed Kunming mouse administered as single dose; format: organism-based; conditions: in vivo
[41] = Toxicity in Kunming mouse assessed as effect on heart at 5 to 500 mg/kg, ip administered as single dose by macroscopic autopsy analysis; format: organism-based; conditions: in vivo, dose 5-500 mg/kg
[42] = Toxicity in Kunming mouse assessed as effect on liver at 5 to 500 mg/kg, ip administered as single dose by macroscopic autopsy analysis; format: organism-based; conditions: in vivo, dose 5-500 mg/kg
[43] = Toxicity in Kunming mouse assessed as effect on kidney at 5 to 500 mg/kg, ip administered as single dose by macroscopic autopsy analysis; format: organism-based; conditions: in vivo, dose 5-500 mg/kg
[44] = Toxicity in Kunming mouse assessed as effect on spleen at 5 to 500 mg/kg, ip administered as single dose by macroscopic autopsy analysis; format: organism-based; conditions: in vivo, dose 5-500 mg/kg
[45] = Toxicity in Kunming mouse assessed as effect on lung at 5 to 500 mg/kg, ip administered as single dose by macroscopic autopsy analysis; format: organism-based; conditions: in vivo, dose 5-500 mg/kg

**Q.** With `CC(C)=CCC[C@@]1(C)CC=C(CF)c2oc(C)cc2[C@@H]1/C=C/OC(=O)C=C(C)C` as the compound, how does the inhibition [1] read?
**A.** 72.2%

**Q.** What about the IC50 [2] of the same compound?
**A.** 0.39 µM

**Q.** And the IC50 [3]?
**A.** 3.69 µM

**Q.** And the IC50 [4]?
**A.** > 40 µM

**Q.** And the IC50 [5]?
**A.** 11.9 µM

**Q.** What about the IC50 [6] of the same compound?
**A.** 17.7 µM

**Q.** And the IC50 [7]?
**A.** 20 µM

**Q.** What about the viability at 1 µM [8] of the same compound?
**A.** 87.1%

**Q.** And the Activity [9]?
**A.** 1.57%

**Q.** What about the Activity [10] of the same compound?
**A.** 11%

**Q.** What about the Activity [11] of the same compound?
**A.** 0.27%

**Q.** What about the viability at 5 µM [12] of the same compound?
**A.** 83%

**Q.** And the Activity [13]?
**A.** 2.87%

**Q.** What about the Activity [14] of the same compound?
**A.** 12.8%

**Q.** And the Activity [15]?
**A.** 0.22%

**Q.** And the viability at 10 µM [16]?
**A.** 38.4%

**Q.** And the Activity [17]?
**A.** 4.98%

**Q.** What about the Activity [18] of the same compound?
**A.** 50.4%

**Q.** What about the Activity [19] of the same compound?
**A.** 6.29%

**Q.** And the viability at 20 µM [20]?
**A.** 19.5%

**Q.** And the Activity [21]?
**A.** 3.78%

**Q.** And the Activity [22]?
**A.** 73.3%

**Q.** What about the Activity [23] of the same compound?
**A.** 3.45%

**Q.** What about the Activity [24] of the same compound?
**A.** Active

**Q.** What about the Activity [25] of the same compound?
**A.** Active

**Q.** And the Activity [26]?
**A.** Dose-Dependent Effect

**Q.** What about the Activity [27] of the same compound?
**A.** Dose-Dependent Effect

**Q.** What about the inhibition [28] of the same compound?
**A.** Dose-Dependent Effect

**Q.** And the inhibition [29]?
**A.** Dose-Dependent Effect

**Q.** And the solubility [30]?
**A.** Insoluble

**Q.** And the inhibition in vivo at 100 mg/kg [31]?
**A.** 48.4%

**Q.** And the inhibition in vivo at 100 mg/kg [32]?
**A.** 42.4%

**Q.** What about the Activity [33] of the same compound?
**A.** Non-Toxic

**Q.** What about the Activity [34] of the same compound?
**A.** Non-Toxic

**Q.** And the Activity [35]?
**A.** Non-Toxic

**Q.** What about the Activity [36] of the same compound?
**A.** Non-Toxic

**Q.** What about the Activity [37] of the same compound?
**A.** Non-Toxic

**Q.** And the Activity [38]?
**A.** Non-Toxic

**Q.** What about the Activity [39] of the same compound?
**A.** Non-Toxic

**Q.** What about the LD50 [40] of the same compound?
**A.** > 500 mg/kg

**Q.** What about the Activity [41] of the same compound?
**A.** Non-Toxic

**Q.** What about the Activity [42] of the same compound?
**A.** Non-Toxic

**Q.** What about the Activity [43] of the same compound?
**A.** Non-Toxic

**Q.** And the Activity [44]?
**A.** Non-Toxic

**Q.** What about the Activity [45] of the same compound?
**A.** Non-Toxic
